Test results as given in patent publication US20250179103A1, “6-OXODECAHYDROPYRROLO[1,2-A][1,5]DIAZOCINE AND 6-OXODECAHYDRO-4H-PYRROLO[2,1-D][1,5]THIAZOCINE DERIVATIVES AS STAT3 AND STAT6 MODULATORS FOR THE TREATMENT OF CANCER AND INFLAMMATORY CONDITIONS” (Recludix Pharma, Inc., priority 2022, published 2025).

Legend:
[1] = test system: pY705-STAT3 in Peripheral Blood Mononuclear Cells (PBMC); assay: MSD-pSTAT-PBMC Assay (pSTAT3, IL-6 stimulated); assay type: cell-based, Human; settings: Homo sapiens, compound 3 hrs, then 10 ng/mL IL-6 for 10 min
Excerpt: Cryopreserved Peripheral Blood Mononuclear Cells (PBMC) are from AllCells. Recombinant Human IL-4 and IL-6 are from Peprotech. Mouse monoclonal anti-STAT3 antibody, rabbit monoclonal anti-pY705-STAT3 antibody, rabbit monoclonal Anti-pY641-STAT6 antibody, and lysis buffer are from Cell Signaling Technology (CST). Mouse monoclonal anti-STAT6 antibody is from BioLegend. Assay plates, blocker, and anti-rabbit secondary antibody are from Meso Scale Discovery (MSD).
Cryopreserved PBMCs were thawed out and allowed to recover overnight in IMDM+10% heat-inactivated FBS prior to plating 50,000 (STAT3) or 25,000 (STAT6) cells per well in 96-well U-bottom tissue culture plates. Cells were treated with compound for 3 hrs, then stimulated with 10 ng/mL IL-6 (STAT3) or 1 ng/mL IL-4 (STAT6) for 10 min. Cells were then spun down and washed with ice-cold PBS prior to lysing the cell pellet with 1× lysis buffer (CST) with 1×HALT protease and phosphatase inhibitor cocktail (Thermo). Lysates were transferred to and incubated overnight at 4° C. with shaking in QuickPlex 96-well high bind assay plates (MSD) pre-coated overnight with 30 μL per well of 0.6 μg/mL mouse monoclonal anti-STAT3 antibody (STAT3) or 2 μg/mL mouse monoclonal anti-STAT6 antibody (STAT6) in 1×PBS, and pre-blocked for 1 hour with 3% Blocker-A (MSD). Captured protein in the assay plates were then washed and probed with 25 μL per well of 0.25 μg/ml rabbit monoclonal anti-pY705-STAT3 antibody (STAT3) or […] rabbit monoclonal Anti-pY641-STAT6 antibody (STAT6) in 1% Blocker-A for 1 hour at room temperature with shaking, then washed and probed with 25 ul per well of 1 ug/ml Sulfo-TAG Labeled Goat Anti-Rabbit Antibody (MSD) in 1% Blocker-A for 1 hour at room temperature with shaking. Assay plates were then washed and 150 μL of 1× Read Buffer-T (MSD) was added to each well prior to reading on an SQ120 MSD Plate Reader. Assay signal from each sample was subtracted by the signal from unstimulated control wells and normalized to DMSO control wells. IC50 values were calculated using Graph Pad Prism Dose-Response Nonlinear Regression with variable slope. For both pSTAT3 and pSTAT6 A=≤100 nM; B=>100-1000 nM; C=>1000-3000 nM; and D=>3 μM.

[2] = test system: pY641-STAT6 in Peripheral Blood Mononuclear Cells (PBMC); assay: MSD-pSTAT-PBMC Assay (pSTAT6, IL-4 stimulated); assay type: cell-based, Human; settings: Homo sapiens, compound 3 hrs, then 1 ng/mL IL-4 for 10 min
Summary of the method: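 Human PBMCs were preincubated 3 h with compound, then stimulated 10 min with 10 ng/mL IL-6 (pY705-STAT3) or 1 ng/mL IL-4 (pY641-STAT6). Lysates were read by MSD sandwich immunoassay, capturing total STAT and detecting phospho-STAT. Signal was unstimulated-subtracted and DMSO-normalised, with variable-slope IC50 binned A–D.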

SMILES | IC50 [1] [nM] | IC50 [2] [nM]
CC(=O)N1CC[C@H]2CC[C@@H](C(=O)N(C)c3ccccc3)N2C(=O)[C@@H](NC(=O)c2cc3cc(C(F)P(=O)(OCOC(=O)C(C)(C)C)OCOC(=O)C(C)(C)C)ccc3s2)C1 (stereo partly drawn) [Compound 295, ((((2-(((5S,8S, 10aR)-3-acetyl-8-(methyl (phenyl)carbamoyl)-6-oxodecahydro-pyrrolo[1,2-a][1,5]diazocin-5-yl)carbamoyl)benzo[b]thiophen-5-yl)fluoro-methyl)phos-phoryl)bis(oxy))bis (methylene) bis(2,2-dimethylpro-panoate)] | 100 to 1000 | 100 to 1000
CCCOC(=O)OCOP(=O)(OCOC(=O)OCCC)C(F)(F)c1ccc2sc(C(=O)N[C@H]3CN(C(C)=O)CC[C@H]4CC[C@@H](C(=O)N(C)c5ccccc5)N4C3=O)cc2c1 [Compound 286, ((((2-(((5S, 8S,10aR)-3-acetyl-8-(methyl (phenyl)carbamoyl)-6-oxodecahydro-pyrrolo[1,2-a][1,5]diazocin-5-yl)carbamoyl)benzo[b]thiophen-5-yl)difluoro-methyl)phosphoryl)bis(oxy)) bis(methylene) dipropyl bis(carbonate)] | 100 to 1000 | 100 to 1000
CC(C)(C)C(=O)SCCOP(=O)(OCCSC(=O)C(C)(C)C)C(F)(F)c1ccc2ccc(C(=O)N[C@H]3CN(CC(F)F)CC[C@H]4CC[C@@H](C(=O)N5C[C@@H](C#N)[C@H](c6ccccc6)C5)N4C3=O)cc2c1 (single isomer, unassigned) [Compound 342, S,S′-(((((7-(((5S,8S,10aR)-8-((3S,4R or 3R,4S)-3-cyano-4-phenylpyrrolidine-1-carbonyl)-3-(2,2-difluoroethyl)-6-oxodecahydropyrrolo[1,2-a][1,5]diazocin-5-yl)carbamoyl)naphthalen-2-yl)difluoromethyl)phosphoryl)bis(oxy))bis (ethane-2,1-diyl))bis(2,2-dimethylprop anethioate)] | > 3000 | 100 to 1000
CC(=O)N1CC[C@H]2CC[C@@H](C(=O)N(C)c3ccccc3)N2C(=O)[C@@H](NC(=O)c2cc3cc(C(F)(F)P(=O)(OCCSC(=O)C(C)(C)C)OCCSC(=O)C(C)(C)C)ccc3s2)C1 [Compound 291, S,S′-(((((2-(((5S,8S, 10aR)-3-acetyl-8-(methyl (phenyl)carbamoyl)-6-oxodecahydro-pyrrolo[1,2-a][1,5]diazocin-5-yl)carbamoyl)benzo[b]thiophen-5-yl)difluoro-methyl)phos-phoryl)bis(oxy))bis(ethane-2,1-diyl)) bis(2,2-dimethylpro-panethioate)] | > 3000 | > 3000
CC(=O)N1CC[C@H]2CC[C@@H](C(=O)Nc3ccc4nnccc4c3)N2C(=O)[C@@H](NC(=O)c2cc3cc(C(F)(F)P(=O)(OCOC(=O)C(C)(C)C)OCOC(=O)C(C)(C)C)ccc3s2)C1 [Compound 294, ((((2-(((5S,8S, 10aR)-3-acetyl-8-(cinnolin-6-ylcarbamoyl)-6-oxodecahydro-pyrrolo[1,2-a][1,5]diazocin-5-yl)carbamoyl)benzo[b]thiophen-5-yl)difluoro-methyl)phos-phoryl)bis(oxy)) bis(methylene) bis(2,2-dimethylpro-panoate)] | 100 to 1000 | 100 to 1000
CC(=O)N1CC[C@H]2CC[C@@H](C(=O)N(C)C3CCN(S(C)(=O)=O)CC3)N2C(=O)[C@@H](NC(=O)c2cc3cc(C(F)(F)P(=O)(OCOC(=O)C(C)(C)C)OCOC(=O)C(C)(C)C)ccc3s2)C1 [Compound 312, ((((2-(((5S, 8S,10aR)-3-acetyl-8-(methyl(1-(methyl-sulfonyl)piperidin-4-yl)carbamoyl)-6-oxodecahydro-pyrrolo[1,2-a][1,5]diazocin-5-yl)carbamoyl)benzo[b]thiophen-5-yl)difluoro-methyl)phos-phoryl)bis(oxy))bis (methylene) bis(2,2-dimethylpro-panoate)] | > 3000 | 100 to 1000
CC(=O)N1CC[C@H]2CC[C@@H](C(=O)Nc3cnc(S(C)(=O)=O)nc3)N2C(=O)[C@@H](NC(=O)c2cc3cc(C(F)(F)P(=O)(OCOC(=O)C(C)(C)C)OCOC(=O)C(C)(C)C)ccc3s2)C1 [Compound 309, ((((2-(((5S, 8S,10aR)-3-acetyl-8-((2-(methyl-sulfonyl)pyrimidin-5-yl)carbamoyl)-6-oxodecahydro-pyrrolo[1,2-a][1,5]diazocin-5-yl)carbamoyl)benzo[b]thiophen-5-yl)difluoro-methyl)phos-phoryl)bis(oxy)) bis(methylene) bis(2,2-dimethylpro-panoate)] | > 3000 | 1000 to 3000
CC(=O)N1CC[C@H]2CC[C@@H](C(=O)N(C)c3ccccc3)N2C(=O)[C@@H](NC(=O)c2cc3cc(C(F)(F)P(=O)(OCOC(=O)OC(C)C)OCOC(=O)OC(C)C)ccc3s2)C1 [Compound 318, ((((2-(((5S,8S, 10aR)-3-acetyl-8-(methyl (phenyl)carbamoyl)-6-oxodecahydro-pyrrolo[1,2-a][1,5]diazocin-5-yl)carbamoyl)benzo[b]thiophen-5-yl)difluoro-methyl)phos-phoryl)bis(oxy)) bis(methylene) diisopropyl bis(carbonate)] | 100 to 1000 | 100 to 1000
CCN1CC[C@H]2CC[C@@H](C(=O)N3C[C@@H](C#N)[C@H](c4ccccc4)C3)N2C(=O)[C@@H](NC(=O)c2cc3cc(C(F)(F)P(=O)(OCCSC(=O)C(C)(C)C)OCCSC(=O)C(C)(C)C)ccc3s2)C1 (single isomer, unassigned) [Compound 330, S,S′-(((((2-(((5S,8S,10aR)-8-((3S,4R or 3R,4S)-3-cyano-4-phenylpyrrolidine-1-carbonyl)-3-ethyl-6-oxodecahydropyrrolo[1,2-a][1,5]diazocin-5-yl)carbamoyl)benzo[b]thiophen-5-yl)difluoromethyl)phosphoryl)bis(oxy))bis(ethane-2,1-diyl)) bis(2,2-dimethylpropanethioate)] | 1000 to 3000 | 1000 to 3000
CC(=O)N1CC[C@H]2CC[C@@H](C(=O)Nc3ccc(-c4ccccc4)cc3)N2C(=O)[C@@H](NC(=O)c2cc3cc(C(F)(F)P(=O)(OCOC(=O)C(C)(C)C)OCOC(=O)C(C)(C)C)ccc3[nH]2)C1 [Compound 308, ((((2-(((5S, 8S,10aR)-8-([1,1′-biphenyl]-4-ylcarbamoyl)-3-acetyl-6-oxodecahydro-pyrrolo[1,2-a][1,5]diazocin-5-yl)carbamoyl)-1H-indol-5-yl)difluoro-methyl)phos-phoryl)bis(oxy)) bis(methylene) bis(2,2-dimethylpro-panoate)] | 100 to 1000 | 100 to 1000
CC(=O)N1CC[C@H]2CC[C@@H](C(=O)N(C)c3ccccc3)N2C(=O)[C@@H](NC(=O)c2cc3cc(C(F)(F)P(=O)(OCOC(=O)C(C)(C)C)OCOC(=O)C(C)(C)C)ccc3s2)C1 [Compound 296, ((((2-(((5S,8S, 10aR)-3-acetyl-8-(methyl (phenyl)carbamoyl)-6-oxodecahydro-pyrrolo[1,2-a][1,5]diazocin-5-yl)carbamoyl)benzo[b]thiophen-5-yl)difluoro-methyl)phos-phoryl)bis(oxy)) bis(methylene) bis(2,2-dimethylpro-panoate)] | 100 to 1000 | ≤ 100
CC(=O)N1CC[C@H]2CC[C@@H](C(=O)N3C[C@@H](C#N)[C@H](c4cc[nH]c(=O)c4)C3)N2C(=O)[C@@H](NC(=O)c2ccc3ccc(C(F)(F)P(=O)(OCCSC(=O)CC(C)C)OCCSC(=O)CC(C)C)cc3c2)C1 (single isomer, unassigned) [Compound 306, S,S′-(((((7-(((5S,8S, 10aR)-3-acetyl-8-((3S,4R or 3r,4S)-3-cyano-4-(2-oxo-1,2-dihydro-pyridin-4-yl)pyrrolidine-1-carbonyl)-6-oxodecahydro-pyrrolo[1,2-a][1,5]diazocin-5-yl)carbamoyl)naphthalen-2-yl)difluoro-methyl)phos-phoryl)bis(oxy))bis(ethane-2,1-diyl)) bis(3-methylbutane-thioate)] | > 3000 | 1000 to 3000
